Measurements reported in ChEMBL document CHEMBL1127221, “The design of a dipeptide library for screening at peptide receptor sites” (Bioorg Med Chem Lett, 1993).
Values belong to the molecule of their own block, whether it stands above or below them.

How the values were obtained:
[1] = target: T1, Gastrin/cholecystokinin type B receptor (Homo sapiens, UniProt P32239); experiment: Inhibitory activity against Cholecystokinin type B receptor
T1 sequence (P32239 whole entry): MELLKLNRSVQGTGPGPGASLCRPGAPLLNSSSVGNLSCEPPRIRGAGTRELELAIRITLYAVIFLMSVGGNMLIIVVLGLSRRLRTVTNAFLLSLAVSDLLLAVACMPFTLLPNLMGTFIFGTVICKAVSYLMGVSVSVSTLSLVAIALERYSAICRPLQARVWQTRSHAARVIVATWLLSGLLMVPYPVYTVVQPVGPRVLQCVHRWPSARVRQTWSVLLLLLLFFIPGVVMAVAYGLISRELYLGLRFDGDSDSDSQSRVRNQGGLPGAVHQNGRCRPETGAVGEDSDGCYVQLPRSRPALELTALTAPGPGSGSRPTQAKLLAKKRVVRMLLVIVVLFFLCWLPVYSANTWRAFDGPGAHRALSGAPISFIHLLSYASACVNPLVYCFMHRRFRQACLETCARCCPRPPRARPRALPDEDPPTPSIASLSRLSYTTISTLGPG

[2] = target: T2, Cholecystokinin receptor type A (Homo sapiens, UniProt P32238); experiment: Inhibitory activity against CCK-A receptor
T2 sequence (P32238 whole entry): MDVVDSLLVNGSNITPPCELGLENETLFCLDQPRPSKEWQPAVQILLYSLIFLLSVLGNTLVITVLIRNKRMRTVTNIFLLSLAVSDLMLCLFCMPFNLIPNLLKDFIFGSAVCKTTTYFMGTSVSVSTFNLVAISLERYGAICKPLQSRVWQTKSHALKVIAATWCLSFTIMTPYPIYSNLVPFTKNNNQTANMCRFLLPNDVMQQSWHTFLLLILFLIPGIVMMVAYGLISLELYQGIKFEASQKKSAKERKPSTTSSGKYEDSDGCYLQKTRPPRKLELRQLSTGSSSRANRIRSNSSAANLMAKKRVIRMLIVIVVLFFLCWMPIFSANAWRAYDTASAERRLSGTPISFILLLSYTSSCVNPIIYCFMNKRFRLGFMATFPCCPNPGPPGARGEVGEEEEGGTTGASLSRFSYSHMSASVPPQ

[3] = target: Angiotensin-converting enzyme (Homo sapiens, UniProt P12821); experiment: Inhibitory activity against Angiotensin I converting enzyme
Angiotensin-converting enzyme, sequence (P12821 whole entry): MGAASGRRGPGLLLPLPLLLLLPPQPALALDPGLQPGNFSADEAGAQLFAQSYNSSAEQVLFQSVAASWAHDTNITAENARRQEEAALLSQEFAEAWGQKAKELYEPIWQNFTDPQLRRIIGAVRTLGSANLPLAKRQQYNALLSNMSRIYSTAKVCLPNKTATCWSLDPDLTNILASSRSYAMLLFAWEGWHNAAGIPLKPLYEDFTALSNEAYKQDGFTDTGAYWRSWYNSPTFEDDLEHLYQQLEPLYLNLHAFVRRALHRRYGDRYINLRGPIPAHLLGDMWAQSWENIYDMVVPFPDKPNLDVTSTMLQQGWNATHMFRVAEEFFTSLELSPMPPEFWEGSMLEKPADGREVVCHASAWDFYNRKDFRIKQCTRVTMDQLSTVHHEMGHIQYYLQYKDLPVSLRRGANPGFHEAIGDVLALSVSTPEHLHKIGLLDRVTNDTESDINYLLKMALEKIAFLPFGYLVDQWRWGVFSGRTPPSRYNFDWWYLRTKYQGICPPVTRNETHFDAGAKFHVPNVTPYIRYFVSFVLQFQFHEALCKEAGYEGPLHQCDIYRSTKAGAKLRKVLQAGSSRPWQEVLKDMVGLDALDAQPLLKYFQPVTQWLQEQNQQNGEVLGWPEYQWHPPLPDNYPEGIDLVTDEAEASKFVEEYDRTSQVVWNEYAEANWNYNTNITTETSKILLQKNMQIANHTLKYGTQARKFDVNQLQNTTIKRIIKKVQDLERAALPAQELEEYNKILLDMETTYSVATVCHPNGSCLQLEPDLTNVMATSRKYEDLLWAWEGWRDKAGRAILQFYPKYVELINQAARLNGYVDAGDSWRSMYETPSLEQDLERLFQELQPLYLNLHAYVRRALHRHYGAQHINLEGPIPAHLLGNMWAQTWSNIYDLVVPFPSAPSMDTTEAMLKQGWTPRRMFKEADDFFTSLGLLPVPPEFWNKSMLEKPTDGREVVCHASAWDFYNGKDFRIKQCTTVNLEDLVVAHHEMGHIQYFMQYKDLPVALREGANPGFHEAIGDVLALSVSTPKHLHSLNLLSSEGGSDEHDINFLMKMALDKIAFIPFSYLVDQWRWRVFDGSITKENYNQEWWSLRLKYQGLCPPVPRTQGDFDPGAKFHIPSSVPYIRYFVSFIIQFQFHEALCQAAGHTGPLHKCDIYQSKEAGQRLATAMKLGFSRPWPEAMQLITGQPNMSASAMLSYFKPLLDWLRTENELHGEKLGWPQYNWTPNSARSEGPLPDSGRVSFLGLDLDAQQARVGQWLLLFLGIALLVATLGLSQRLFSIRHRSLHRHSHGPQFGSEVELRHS

Ki [1]: 1.7 nM
Molecule: C[C@@](N)(Cc1cn(C(=O)OC2C3CC4CC(C3)CC2C4)c2ccccc12)C(=O)NC[C@H](NC(=O)CCC(=O)O)c1ccccc1 (stereo partly drawn)

Ki [2]: 3 nM
Molecule: C[C@@](N)(Cc1cn(C(=O)OC2C3CC4CC(C3)CC2C4)c2ccccc12)C(=O)N[C@H](CC(=O)O)Cc1ccccc1 (stereo partly drawn)

Ki [3]: 100 nM
Molecule: H-EWPRPQIPP-OH
